{"source": "paper PMC6789111", "about": "“Crossing the blood-brain-barrier with nanoligand drug carriers self-assembled from a phage display peptide” (Nature Communications, 2019)", "key": {"[1]": {"conditions": "mouse, in vivo, iv", "experimental": "After 4, 24 and 72 h post injection, mice were sacrificed and perfused with 10 mL 0.9% (w/v) saline at a rate of 2 mL min^−1. Organs (brain, heart, liver, lung, kidney, spleen) were collected for haematoxylin-eosin (H&E) analysis. Tissues were sectioned at a 5 mm thickness. H&E staining was done by submersion in Harris hematoxylin followed by differentiation through 37% HCl and Li2CO3 solution. An Olympus optical microscope (Tokyo, Japan) was used for assessing slides."}, "[2]": {"test_system": "hCMEC/D3 cells", "experimental": "LDH release was followed at 24 h post transfection procedures. The measurement was performed using CytoTox96® Non-Radioactive Cytotoxicity Assay kit (Promega, WI, USA)[43]. The maximum amount of LDH in the cells, induced by the addition of a lysis solution, was measured and used as a 100% LDH release and compared with peptidoplex and siPORT-siRNA complex-induced LDH release as well as to spontaneous cellular LDH release (untreated cells)."}, "[3]": {"test_system": "hCMEC/D3 cells", "assay": "Competition studies of NLC uptake", "assay_type": "cell-based, human", "procedure": "The amyloid β1–42 oligomers were prepared using a previous method. BSA was used as control protein competitor. The fluorescence microscopy and FACS were employed to observe and quantify FAM-CGY self-assembly uptake, respectively."}, "[4]": {"test_system": "Iba-1", "assay": "ELISA of Iba-1 in hippocampus", "assay_type": "in vivo, ICR mice", "conditions": "Ave."}, "[5]": {"test_system": "IL-1β", "assay": "ELISA of IL-1β in hippocampus", "assay_type": "in vivo, ICR mice", "conditions": "Ave."}, "[6]": {"test_system": "hCMEC/D3 cells", "assay": "Uptake with internalisation inhibitors", "conditions": "37 °C", "experimental": "The medium was then removed and replaced with a fresh medium containing NLCs and the corresponding inhibitor. After 8 h of incubation at 37 °C, cells were washed three times with cell medium and analysed by FACS. Cell viability at the end of each experiment was >90% as determined by Trypan Blue exclusion test. The following inhibitors were used: 2-deoxy-D-glucose (1 mM)/sodium azide (1 mM) as energy-dependent inhibitors, worthmanin (10 μM) as macropinocytosis inhibitor, chloropromazine (30 μM) as clathrin-dependent endocytosis inhibitor, N-ethylmaleimide (5 μM) as caveolae-dependent endocytosis and transcytosis inhibitor and indomethacin (200 μM) as caveolae-dependent endocytosis inhibitor."}, "[7]": {"test_system": "TNF-α", "conditions": "Ave.", "procedure": "Tissues were sectioned at a […] thickness.\nBlood samples were collected for determination of red blood cell count, white blood cell count, haemoglobin, haematocrit, mean corpuscular volume, mean corpuscular haemoglobin, mean corpuscular haemoglobin concentration and platelet count (XFA6030, Perlong Medical Inc., China). Hippocampus was dissected out, rinsed in ice-cold PBS thoroughly, weighted and immediately frozen in liquid nitrogen. Tissues were cut into small pieces and homogenized in 1 mL ice-cold PBS with a glass homogeniser and sonicated with an ultrasonic cell disrupter to break the cell membranes. Homogenates were centrifuges for 5 min at 5,000 × g and supernatants were assayed immediately for quantitative determination of TNF-α, IL-6, IL-1β, Iba-1 and GFAP by corresponding ELISA kits, respectively in accordance with manufacturer’s instructions."}, "[8]": {"conditions": "mouse, in vivo, iv", "remark": "listed apart in the source", "experimental": "In some experiments, animals were transcardially perfused with 10 mL 0.9% (w/v) saline at a rate of 2 mL min^−1 through the left ventricle to remove the blood from the brain, followed by 20 mL 4% (v/v) paraformaldehyde in phosphate buffered saline (PBS, pH = 7.4). The brain was removed and post-fixed overnight in 4% (v/v) paraformaldehyde followed by dehydration with 30% (w/v) sucrose solution in PBS at 4 °C. Frozen sections were cut on a cryostat (Thermo fisher, USA). […] To visualise neurons, microglial and astrocytes, sections were first stained with antibodies against Tuj1 (1:500), Iba1 (1:300) and GFAP (1:300), respectively, and then with donkey anti-mouse Alexa Fluor®555 (1:1000 dilution) secondary antibody. DAPI staining was performed to visualise cell nuclei."}, "[9]": {"test_system": "hCMEC/D3 cell monolayer", "assay": "Transwell in vitro BBB model", "assay_type": "cell-based, human", "procedure": "For the construction of the in vitro BBB model, hCMEC/D3 cells were seeded on rat tail collagen-coated polycarbonate membranes (Transwell, No. 3401 Costar; Corning, Wiesbaden, Germany; 0.4 μm pore size; 1.13 cm^2 growth area) with a density of 100,000 cells cm^−2. Every three days the cell medium was change. In general after 7 days growth, the cells reached confluence. The transendothelial electrical resistance (TEER) and cell layer capacitance (CCL), which reflects the membrane surface area of the hCMEC/D3 cell monolayer, were measured using CellZscope system (NanoAnalytics, Münster, Germany). Cells with CCL values in the range of 0.5–5.0 μF cm^−2 indicate cell confluence and validate TEER values were selected for the transfer experiments. NLCs at different concentrations were introduced in to the apical side of the BBB model. The TEER values were measured during the incubation. After 24 h of incubation, the media from basal and apical sides were sampled and analysed for fluorescent measurement. CD31 and paracellular adherens (β-catenin) junctions were assessed by immunofluorescence labeling directly on the cell monolayer attached to the transwell membrane. Briefly, cells were fixed by 4% v/v paraformaldehyde for 10 min, rinsed and then permeabilised with 0.5% (v/v) Triton X-100 for 10 min. After rinsing samples were blocked by 5% w/v BSA for 1 h, followed by incubation with primary antibodies (rabbit polyclonal to CD31, rabbit polyclonal to anti-β-catenin) in 1% w/v BSA overnight at 4 °C. […] After rinsing, the red fluorescence from tight junction proteins was observed by a Leica AF6000LX microscope equipped with a 63 × objective using ×1.6 magnifications. […]\nformation of multiple cell-layers was sometime observed from day 7 onward. […] TEER values and its corresponding capacitance were recorded after the introduction of peptide for 24 h. (d) & (e) Staining and quantification of endothelial cells (CD31) and adheren β-catenin markers confirming the presence of a functional tight junction before and after NLC ( 5 µM) challenge. […]"}, "[10]": {"test_system": "IL-6", "assay": "ELISA of IL-6 in hippocampus", "assay_type": "in vivo, ICR mice", "conditions": "Ave.", "experimental": "After 4, 24 and 72 h post injection, mice were sacrificed and perfused with 10 mL 0.9% (w/v) saline at a rate of 2 mL min^−1."}}, "note": "Read-outs that look alike come from different tables or passages of the source. Peptide text beside a SMILES is read from it. * marks the point of attachment. 5FAM = O=C1OC2(c3ccc(O)cc3Oc3cc(O)ccc32)c2ccc(C(=O)*)cc21"}
{"smiles": "CC[C@H](C)[C@H](NC(=O)[C@H](CC(N)=O)NC(=O)[C@H](Cc1c[nH]cn1)NC(=O)[C@@H](NC(=O)[C@@H]1CCCN1C(=O)[C@H](CCCNC(=N)N)NC(=O)[C@H](Cc1ccc(O)cc1)NC(=O)CNC(=O)[C@H](CS)NC(=O)c1ccc2c(c1)C(=O)OC21c2ccc(O)cc2Oc2cc(O)ccc21)C(C)C)C(=O)N[C@@H](CCCNC(=N)N)C(=O)NCC(=O)N[C@@H](Cc1c[nH]cn1)C(=O)N[C@@H](Cc1c[nH]c2ccccc12)C(=O)N[C@@H](C)C(=O)N1CCC[C@H]1C(=O)NCC(=O)O", "note": "[FAM-CGY] (5FAM-CGYRPVHNIRGHWAPG-OH)", "values": [{"measurement": "histology of liver, kidneys, heart, lungs, spleen", "setting": "[1]", "result": "no adverse morphological changes and inflammatory reactions"}, {"measurement": "plasma membrane integrity (extracellular LDH)", "setting": "[2]", "result": "neither FAM-CGY NLCs nor FAM-CGY/siRNA nanoparticles perturbed plasma membrane integrity"}, {"measurement": "inhibition of NLC uptake by transferrin", "setting": "[3]; 500 nM partially iron saturated human transferrin, 37 °C", "result": "~ 50%"}, {"measurement": "FAM-CGY uptake (% of control)", "setting": "[3]; 5 µM NLC + 62.5 nM Tf, Ave. All", "result": "78.89 % of control"}, {"measurement": "FAM-CGY uptake (% of control)", "setting": "[3]; 5 µM NLC + 62.5 nM Tf, Set 2", "result": "73.26 % of control"}, {"measurement": "FAM-CGY uptake (% of control)", "setting": "[3]; 5 µM NLC + 62.5 nM Tf, Set 3", "result": "81.15 % of control"}, {"measurement": "FAM-CGY uptake (% of control)", "setting": "[3]; 5 µM NLC + 62.5 nM transferrin (Tf), 16 h, FACS, Set 1", "result": "82.27 % of control"}, {"measurement": "FAM-CGY uptake (% of control)", "setting": "[3]; 5 µM NLC + 250 nM Tf+20 μg RAGE P, Ave. All", "result": "33.57 % of control"}, {"measurement": "FAM-CGY uptake (% of control)", "setting": "[3]; 5 µM NLC + 250 nM Tf, Ave. All", "result": "53.82 % of control"}, {"measurement": "FAM-CGY uptake (% of control)", "setting": "[3]; 5 µM NLC + 500 nM Tf, Ave. All", "result": "48.73 % of control"}, {"measurement": "FAM-CGY uptake (% of control)", "setting": "[3]; 5 µM NLC + 5 μg RAGE P, Ave. All", "result": "90.44 % of control"}, {"measurement": "FAM-CGY uptake (% of control)", "setting": "[3]; 5 µM NLC + 5 μg RAGE P, Set 2", "result": "86.26 % of control"}, {"measurement": "FAM-CGY uptake (% of control)", "setting": "[3]; 5 µM NLC + 5 μg RAGE P, Set 3", "result": "92.62 % of control"}, {"measurement": "FAM-CGY uptake (% of control)", "setting": "[3]; 5 µM NLC + 5 μg RAGE peptide (RAGE P), Set 1", "result": "92.46 % of control"}, {"measurement": "FAM-CGY uptake (% of control)", "setting": "[3]; 5 µM NLC + 10 μg RAGE P, Ave. All", "result": "82.03 % of control"}, {"measurement": "FAM-CGY uptake (% of control)", "setting": "[3]; 5 µM NLC + 20 μg RAGE P, Ave. All", "result": "58.83 % of control"}, {"measurement": "FAM-CGY uptake (% of control)", "setting": "[3]; 5 µM NLC + 40 μg BSA (irrelevant protein), Set 1", "result": "108.69 % of control"}, {"measurement": "FAM-CGY uptake (% of control)", "setting": "[3]; 5 µM NLC + 40 μg BSA, Ave. All", "result": "103.56 % of control"}, {"measurement": "FAM-CGY uptake (% of control)", "setting": "[3]; 5 µM NLC + 40 μg BSA, Set 2", "result": "96.26 % of control"}, {"measurement": "FAM-CGY uptake (% of control)", "setting": "[3]; 5 µM NLC + 40 μg BSA, Set 3", "result": "105.73 % of control"}, {"measurement": "block of NLC uptake by transferrin plus RAGE peptide ligand", "setting": "[3]; simultaneous presence of both", "result": "~ 70%"}, {"measurement": "Iba-1 in hippocampus (Figure 6h)", "setting": "[4]; 4 h after i.v.", "result": 0.93}, {"measurement": "Iba-1 in hippocampus (Figure 6h)", "setting": "[4]; 24 h after i.v. (LPS 24 h)", "result": 1.02}, {"measurement": "Iba-1 in hippocampus (Figure 6h)", "setting": "[4]; 72 h after i.v.", "result": 0.96}, {"measurement": "IL-1β in hippocampus (Figure 6g)", "setting": "[5]; 4 h after i.v.", "result": 21.06}, {"measurement": "IL-1β in hippocampus (Figure 6g)", "setting": "[5]; 24 h after i.v. (LPS 24 h)", "result": 23.58}, {"measurement": "IL-1β in hippocampus (Figure 6g)", "setting": "[5]; 72 h after i.v.", "result": 22.65}, {"measurement": "Mean flouresence (%), uptake vs Control (no inhibitor)", "setting": "[6]; CPZ (chloropromazine 30 μM), 8 h, replicate 1", "result": 50.26, "unit": "%"}, {"measurement": "Mean flouresence (%), uptake vs Control (no inhibitor)", "setting": "[6]; CPZ (chloropromazine 30 μM), 8 h, replicate 2", "result": 42.26, "unit": "%"}, {"measurement": "Mean flouresence (%), uptake vs Control (no inhibitor)", "setting": "[6]; CPZ (chloropromazine 30 μM), 8 h, replicate 3", "result": 56.45, "unit": "%"}, {"measurement": "Mean flouresence (%), uptake vs Control (no inhibitor)", "setting": "[6]; DOG+NaN3 (1 mM/1 mM), 8 h, replicate 2", "result": 62.26, "unit": "%"}, {"measurement": "Mean flouresence (%), uptake vs Control (no inhibitor)", "setting": "[6]; DOG+NaN3 (1 mM/1 mM), 8 h, replicate 3", "result": 36.09, "unit": "%"}, {"measurement": "Mean flouresence (%), uptake vs Control (no inhibitor)", "setting": "[6]; DOG+NaN3 (2-deoxy-D-glucose 1 mM/sodium azide 1 mM), 8 h, replicate 1", "result": 44.27, "unit": "%"}, {"measurement": "Mean flouresence (%), uptake vs Control (no inhibitor)", "setting": "[6]; IMC (indomethacin 200 μM), 1 h pre-treatment + 8 h, FACS, FAM-CGY NLC 5 µM or Texas Red-transferrin 5 µg per well, replicate 1", "result": 66.27, "unit": "%"}, {"measurement": "Mean flouresence (%), uptake vs Control (no inhibitor)", "setting": "[6]; IMC (indomethacin 200 μM), 8 h, replicate 2", "result": 72.37, "unit": "%"}, {"measurement": "Mean flouresence (%), uptake vs Control (no inhibitor)", "setting": "[6]; IMC (indomethacin 200 μM), 8 h, replicate 3", "result": 72.43, "unit": "%"}, {"measurement": "Mean flouresence (%), uptake vs Control (no inhibitor)", "setting": "[6]; NEM (N-ethylmaleimide 5 μM), 8 h, replicate 1", "result": 56.24, "unit": "%"}, {"measurement": "Mean flouresence (%), uptake vs Control (no inhibitor)", "setting": "[6]; NEM (N-ethylmaleimide 5 μM), 8 h, replicate 2", "result": 70.26, "unit": "%"}, {"measurement": "Mean flouresence (%), uptake vs Control (no inhibitor)", "setting": "[6]; NEM (N-ethylmaleimide 5 μM), 8 h, replicate 3", "result": 66.59, "unit": "%"}, {"measurement": "Mean flouresence (%), uptake vs Control (no inhibitor)", "setting": "[6]; WOR (worthmanin 10 μM), 8 h, replicate 1", "result": 73.57, "unit": "%"}, {"measurement": "Mean flouresence (%), uptake vs Control (no inhibitor)", "setting": "[6]; WOR (worthmanin 10 μM), 8 h, replicate 2", "result": 75.56, "unit": "%"}, {"measurement": "Mean flouresence (%), uptake vs Control (no inhibitor)", "setting": "[6]; WOR (worthmanin 10 μM), 8 h, replicate 3", "result": 60.92, "unit": "%"}, {"measurement": "TNF-α in hippocampus (Figure 6e)", "setting": "[7]; 4 h after i.v.", "result": 13.40}, {"measurement": "TNF-α in hippocampus (Figure 6e)", "setting": "[7]; 24 h after i.v. (LPS 24 h)", "result": 12.87}, {"measurement": "TNF-α in hippocampus (Figure 6e)", "setting": "[7]; 72 h after i.v.", "result": 12.94}, {"measurement": "association with brain parenchymal cells", "setting": "[8]", "result": "neurons and microglial cells, but not with astrocytes"}, {"measurement": "transport across the hCMEC/D3 monolayer", "setting": "[9]", "result": "transport of a fraction across the monolayer"}, {"measurement": "IL-6 in hippocampus (Figure 6f)", "setting": "[10]; 4 h after i.v.", "result": 6.03}, {"measurement": "IL-6 in hippocampus (Figure 6f)", "setting": "[10]; 72 h after i.v.", "result": 6.23}]}
